Measured values reported in patent US4129648A, “Method for reducing endogenous prostaglandin synthesis” (priority 1977, dated 1978).
Counter-ions that a name gives are not always drawn.

Assays:
[1] = tested on: bronchoconstriction induced by sodium arachidonate; assay: Dynamic compliance and airway resistance in the anaesthetized guinea pig challenged with sodium arachidonate; format: in vivo
Protocol: (§1) The ability of Cohn subfraction IV4 and haptoglobin to reduce the transient hypertension caused by administration of sodium arachidonate in the guinea pig was also measured. These tests were carried out as follows.
(§2) Male albino guinea pigs weighing 400-600 g each (Dunkin Hartley strain) were anesthetized by administration of sodium pentobarbitone, 60 mg/kg intraperitoneally. The trachea was cannulated for artificial ventilation by a Starling pump (5-8 ml at 72 strokes per minute) via a Fleisch 0000 pneumatachograph. The difference in pressure across this device was measured with a Grass differential pressure transducer. […] Transpulmonary pressure (TPP) was measured with another differential pressure transducer via side arms to the thoracic cavity and the tracheal cannula. The signals for low and TPP were applied to the analogue computer so that there was approximately 180° phase difference. The computer derived the dynamic compliance and resistance from the in-going signals. Drugs were administered intravenously via the external jugular vein. A 1 mg/ml solution of sodium arachidonate was prepared as follows. […] These doses were given at 30 minute intervals to produce a large but submaximal bronchoconstriction. After 2 or 3 similar responses to the same dose of sodium arachidonate had been obtained, the test substance in saline (0.1 to 1 ml) was injected intravenously. At various times thereafter, a challenge was given.

[2] = tested on: transient hypertension induced by sodium arachidonate; assay: Mean arterial blood pressure in the anaesthetized guinea pig challenged with sodium arachidonate; format: in vivo
Protocol: as §1, §2
The left carotid artery was cannulated for recording blood pressure with a Grass pressure transducer (Consolidated Dynamics 0.75 cm Hg type 4L221) linked to a Devices twin channel polygraph via a CD2D pre-amplifier. Electrocardiograms were recorded using a DC6 pre-amplifier linked to the Devices polygraph.

[3] = dose 5 mg/kg intravenously, challenge 45 sec after treatment
[4] = dose 20 mg/kg intravenously, challenge 45 sec after treatment
[5] = dose 50 mg/kg intravenously, challenge 45 sec after treatment
[6] = dose 100 mg/kg intravenously, challenge 45 sec after treatment
[7] = dose 0.03 mg/kg intravenously, challenge 45 sec after treatment
[8] = dose 0.10 mg/kg intravenously, challenge 45 sec after treatment
[9] = dose 2 mg/kg intravenously, challenge 45 sec after treatment
[10] = dose 2 mg/kg intravenously, challenge 30 min after treatment
[11] = dose 15 mg/kg intravenously, challenge 45 sec after treatment
[12] = dose 15 mg/kg intravenously, challenge 10 min after treatment
[13] = dose 15 mg/kg intravenously, challenge 30 min after treatment
[14] = dose 15 mg/kg intravenously, challenge 60 min after treatment
[15] = dose 15 mg/kg intravenously, challenge 90 min after treatment
[16] = dose 15 mg/kg intravenously, challenge 120 min after treatment
[17] = dose 25μ/kg intravenously, challenge 30 min after treatment
[18] = dose 25μ/kg intravenously, challenge 60 min after treatment
[19] = dose 25μ/kg intravenously, challenge 90 min after treatment
[20] = dose 25μ/kg intravenously, challenge 120 min after treatment
[21] = dose 25μ/kg intravenously, challenge 150 min after treatment
[22] = dose 50μ/kg intravenously, challenge 30 min after treatment
[23] = dose 50μ/kg intravenously, challenge 60 min after treatment
[24] = dose 50μ/kg intravenously, challenge 90 min after treatment
[25] = dose 50μ/kg intravenously, challenge 120 min after treatment
[26] = dose 50μ/kg intravenously, challenge 150 min after treatment
[27] = dose 50μ/kg intravenously, challenge 180 min after treatment
[28] = dose 50μ/kg intravenously, challenge 210 min after treatment
[29] = dose 50μ/kg intravenously, challenge 240 min after treatment
[30] = dose 0.04 mg/kg intravenously, challenge 30 min after treatment
[31] = dose 0.20 mg/kg intravenously, challenge 30 min after treatment
[32] = dose 0.50 mg/kg intravenously, challenge 30 min after treatment
[33] = dose 0.50 mg/kg intravenously, challenge 60 min after treatment

Compound: Haptoglobin: obtained from human plasma Cohn subfraction IV4 by ammonium sulphate purification and DEAE cellulose chromatography
- Mean % Inhibition (± s.e.) of educed dynamic lung compliance [1, 3]: 27.4 ± 5.3%
- Mean % Inhibition (± s.e.) of increased airway resistance [1, 3]: 31.8 ± 4.7%
- Mean % Inhibition (± s.e.) of educed dynamic lung compliance [1, 4]: 34.3 ± 7.4%
- Mean % Inhibition (± s.e.) of increased airway resistance [1, 4]: 44.3 ± 6.7%
- Mean % Inhibition (± s.e.) of educed dynamic lung compliance [1, 5]: 49.0 ± 3.2%
- Mean % Inhibition (± s.e.) of increased airway resistance [1, 5]: 67.7 ± 0.3%
- Mean % Inhibition (± s.e.) of educed dynamic lung compliance [1, 6]: 64.0 ± 0%
- Mean % Inhibition (± s.e.) of increased airway resistance [1, 6]: 67.0 ± 8.0%
- Mean % Inhibition (± s.e.) of hypertension [2, 3]: 34.5 ± 13.9%
- Mean % Inhibition (± s.e.) of hypertension [2, 4]: 83.5 ± 16.5%
- Mean % Inhibition (± s.e.) of hypertension [2, 5]: 90.0 ± 10.0%
- Mean % Inhibition (± s.e.) of hypertension [2, 6]: 73.0%

Compound: Haptoglobin heated to 60° C 15 min: haptoglobin from Cohn subfraction IV4 by ammonium sulphate purification, partially heat-inactivated
- Mean % Inhibition (± s.e.) of educed dynamic lung compliance [1, 3]: 6.3 ± 6.3%
- Mean % Inhibition (± s.e.) of increased airway resistance [1, 3]: 10.3 ± 5.2%
- Mean % Inhibition (± s.e.) of hypertension [2, 3]: 7.0 ± 7.0%

Compound: COc1ccc2c(c1)c(CC(=O)O)c(C)n2C(=O)c1ccc(Cl)cc1 [Indomethacin, indomethacin sodium salt]
- Mean % Inhibition (± s.e.) of educed dynamic lung compliance [1, 7]: 58.7 ± 15.7%
- Mean % Inhibition (± s.e.) of increased airway resistance [1, 7]: 47.0 ± 15.8%
- Mean % Inhibition (± s.e.) of educed dynamic lung compliance [1, 8]: 85.5 ± 14.5%
- Mean % Inhibition (± s.e.) of increased airway resistance [1, 8]: 90.5 ± 9.5%
- Mean % Inhibition (± s.e.) of hypertension [2, 7]: 65.0 ± 2.1%

Compound: CC(=O)Oc1ccccc1C(=O)O [Aspirin, aspirin calcium salt]
- Mean % Inhibition (± s.e.) of educed dynamic lung compliance [1, 9]: 71.5 ± 6.5%
- Mean % Inhibition (± s.e.) of increased airway resistance [1, 9]: 85.5 ± 3.5%
- Mean % Inhibition (± s.e.) of educed dynamic lung compliance [1, 10]: 81.5 ± 7.5%
- Mean % Inhibition (± s.e.) of increased airway resistance [1, 10]: 91.0 ± 9.0%

Compound: C[C@]12CCC(=O)C=C1CC[C@@H]1[C@@H]2[C@@H](O)C[C@@]2(C)[C@H]1CC[C@]2(O)C(=O)COC(=O)CCC(=O)O [Hydrocortisone, hydrocortisone sodium succinate]
- Mean % Inhibition (± s.e.) of educed dynamic lung compliance [1, 11]: 15.0 ± 7.5%
- Mean % Inhibition (± s.e.) of increased airway resistance [1, 11]: 24.0 ± 1.5%
- Mean % Inhibition (± s.e.) of educed dynamic lung compliance [1, 12]: 21.3 ± 4.2%
- Mean % Inhibition (± s.e.) of increased airway resistance [1, 12]: 24.3 ± 6.8%
- Mean % Inhibition (± s.e.) of educed dynamic lung compliance [1, 13]: 49.0 ± 9.7%
- Mean % Inhibition (± s.e.) of increased airway resistance [1, 13]: 46.2 ± 5.7%
- Mean % Inhibition (± s.e.) of educed dynamic lung compliance [1, 14]: 44.0 ± 6.0%
- Mean % Inhibition (± s.e.) of increased airway resistance [1, 14]: 61.0 ± 3.0%
- Mean % Inhibition (± s.e.) of educed dynamic lung compliance [1, 15]: 25.0%
- Mean % Inhibition (± s.e.) of increased airway resistance [1, 15]: 54.0%
- Mean % Inhibition (± s.e.) of educed dynamic lung compliance [1, 16]: 12.0%
- Mean % Inhibition (± s.e.) of increased airway resistance [1, 16]: 17.0%
- Mean % Inhibition (± s.e.) of hypertension [2, 11]: 35.0 ± 2.0%
- Mean % Inhibition (± s.e.) of hypertension [2, 12]: 48.0 ± 18.0%
- Mean % Inhibition (± s.e.) of hypertension [2, 13]: 25.0 ± 25.0%
- Mean % Inhibition (± s.e.) of hypertension [2, 14]: 25.0%

Compound: ACTH: a drenocorticotrophin (ACTH), well known anti-inflammatory agent (SYSMEHFRWGKPVGKKRRPVKVYPNGAEDESAEAFPLEF; Corticotropin; UniProt P01189 138-176, looked up)
- Mean % Inhibition (± s.e.) of educed dynamic lung compliance [1, 17]: 16.5 ± 16.5%
- Mean % Inhibition (± s.e.) of increased airway resistance [1, 17]: 31.5 ± 24.5%
- Mean % Inhibition (± s.e.) of educed dynamic lung compliance [1, 18]: 35.5 ± 2.5%
- Mean % Inhibition (± s.e.) of increased airway resistance [1, 18]: 55.5 ± 3.5%
- Mean % Inhibition (± s.e.) of educed dynamic lung compliance [1, 19]: 62.5 ± 12.5%
- Mean % Inhibition (± s.e.) of increased airway resistance [1, 19]: 72.5 ± 12.5%
- Mean % Inhibition (± s.e.) of educed dynamic lung compliance [1, 20]: 53.0 ± 3.0%
- Mean % Inhibition (± s.e.) of increased airway resistance [1, 20]: 68.5 ± 16.5%
- Mean % Inhibition (± s.e.) of educed dynamic lung compliance [1, 21]: 63.0%
- Mean % Inhibition (± s.e.) of increased airway resistance [1, 21]: 85.0%
- Mean % Inhibition (± s.e.) of increased airway resistance [1, 22]: 52.0%
- Mean % Inhibition (± s.e.) of increased airway resistance [1, 23]: 73.0%
- Mean % Inhibition (± s.e.) of increased airway resistance [1, 24]: 73.0%
- Mean % Inhibition (± s.e.) of increased airway resistance [1, 25]: 91.0%
- Mean % Inhibition (± s.e.) of increased airway resistance [1, 26]: 68.0%
- Mean % Inhibition (± s.e.) of increased airway resistance [1, 27]: 59.0%
- Mean % Inhibition (± s.e.) of increased airway resistance [1, 28]: 66.0%
- Mean % Inhibition (± s.e.) of increased airway resistance [1, 29]: 67.0%
- Mean % Inhibition (± s.e.) of educed dynamic lung compliance ([1]; intravenously, challenge 30 min after treatment): 67.0%
- Mean % Inhibition (± s.e.) of educed dynamic lung compliance ([1]; intravenously, challenge 60 min after treatment): 50.0%
- Mean % Inhibition (± s.e.) of educed dynamic lung compliance ([1]; intravenously, challenge 90 min after treatment): 67.0%
- Mean % Inhibition (± s.e.) of educed dynamic lung compliance ([1]; intravenously, challenge 120 min after treatment): 75.0%
- Mean % Inhibition (± s.e.) of educed dynamic lung compliance ([1]; intravenously, challenge 150 min after treatment): 58.0%
- Mean % Inhibition (± s.e.) of educed dynamic lung compliance ([1]; intravenously, challenge 180 min after treatment): 75.0%
- Mean % Inhibition (± s.e.) of educed dynamic lung compliance ([1]; intravenously, challenge 210 min after treatment): 75.0%
- Mean % Inhibition (± s.e.) of educed dynamic lung compliance ([1]; intravenously, challenge 240 min after treatment): 75.0%
- Mean % Inhibition (± s.e.) of hypertension [2, 17]: 24.0 ± 10.0%
- Mean % Inhibition (± s.e.) of hypertension [2, 18]: 28.5 ± 14.5%
- Mean % Inhibition (± s.e.) of hypertension [2, 19]: 49.0 ± 15.0%
- Mean % Inhibition (± s.e.) of hypertension [2, 20]: 53.5 ± 3.5%
- Mean % Inhibition (± s.e.) of hypertension [2, 21]: 17.0%
- Mean % Inhibition (± s.e.) of hypertension [2, 22]: 83.0%
- Mean % Inhibition (± s.e.) of hypertension [2, 23]: 67.0%
- Mean % Inhibition (± s.e.) of hypertension [2, 24]: 100.0%
- Mean % Inhibition (± s.e.) of hypertension [2, 25]: 67.0%
- Mean % Inhibition (± s.e.) of hypertension [2, 26]: 100.0%
- Mean % Inhibition (± s.e.) of hypertension [2, 27]: 83.0%
- Mean % Inhibition (± s.e.) of hypertension [2, 28]: 100.0%
- Mean % Inhibition (± s.e.) of hypertension [2, 29]: 100.0%

Compound: C[C@]12CCC(=O)C=C1CC[C@@H]1[C@@H]2[C@@H](O)C[C@]2(C=O)[C@@H](C(=O)CO)CC[C@@H]12 [Aldosterone, aldosterone]
- Mean % Inhibition (± s.e.) of educed dynamic lung compliance [1, 30]: 0%
- Mean % Inhibition (± s.e.) of increased airway resistance [1, 30]: 9.0%
- Mean % Inhibition (± s.e.) of educed dynamic lung compliance [1, 31]: 1.0%
- Mean % Inhibition (± s.e.) of increased airway resistance [1, 31]: 14.0%
- Mean % Inhibition (± s.e.) of educed dynamic lung compliance [1, 32]: 10.5 ± 6.5%
- Mean % Inhibition (± s.e.) of increased airway resistance [1, 32]: 0%
- Mean % Inhibition (± s.e.) of educed dynamic lung compliance [1, 33]: 5.0 ± 5.0%
- Mean % Inhibition (± s.e.) of increased airway resistance [1, 33]: 6.5 ± 6.5%
